Results from paper PMC10572602, “Molecular Mechanism of STIL Coiled-Coil Domain Oligomerization” (International Journal of Molecular Sciences, 2023).
Where two headings read alike, the source gives them in different places.

Tests used:
STIL CCD peptide [1] = assay: AUC sedimentation equilibrium (SE), oligomeric state; assay type: physicochemical; details: starting concentration 500 µM, triplicate, absorbance 280 nm, 95% confidence limits
Procedure: To quantify the dissociation constants of the possible monomer-dimer and dimer-tetramer transitions, we used fluorescence-based binding measurements. Using micro-scale thermophoresis, fluorescence measurements were taken at increasing concentrations of WT CCD peptide in a fixed background of 5 µM fluorophore-labelled peptide. […] Fitting the fluorescence data to the Hill equation provided a dissociation constant of 8 ± 2 µM and a cooperativity of 1.2 ± 0.3 (Figure 2B, Table S4). We interpret this as being for the monomer-dimer transition, and that the fluorescence measurements are insensitive to the higher-order oligomerization. […] To probe the possible dimer-tetramer transition, we turned to AUC-SE measurements with starting concentrations of 5, 10, and 20 µM of STIL WT CCD peptide (Figures S18 and S19). The equilibrated data were fitted first to a model for a single ideal species, which provided a species 2.9 × monomer mass (Table 1). […] It should be noted that the dimerization constant of the WT peptide was measured in the presence of 5% DMSO and using a fluorophore-labeled peptide, while the tetramerization constant was measured without DMSO and unlabeled peptides. The addition of the label and the presence of the DMSO, which was unavoidable for making the labeled peptide soluble, may have affected the measured dimerization constant. Thus, we avoid directly comparing the values obtained by the two methods.
Analytical ultracentrifugation (AUC) experiments were carried out using a Beckman Optima XL-A or XL-I analytical ultracentrifuge. Measurements were performed at 20 °C unless otherwise stated, using an An-50 or An-60 rotor, in Sodium Phosphate Buffer pH 6.8 (25 mM Na2PO4 with addition of 137 mM NaCl, pH measured using Jenway (TM) 3510 benchtop and adjusted using 1M HCl and 1M NaOH solutions). The partial specific volume ( υ¯ ) for each peptide were calculated in Sedfit using values from Cohn and Edsall. The buffer densities and viscosities were calculated using UltraScan III [54].
AUC sedimentation equilibrium (SE) experiments were run at multiple concentrations in a 6-Channel Epon charcoal-filled centerpiece. The samples were centrifuged at a range of speeds between 22–48 krpm. Absorbance scans across the radial range were recorded twice at each speed to ensure equilibration. Data were fitted to single, ideal species models or monomer-dimer equilibrium using Sedphat. In total, 95% confidence limits were obtained via Monte-Carlo analysis of the obtained fits. The quality of the fit was evaluated using the χ^2 parameter to observe which model best fit the data. Both fits of the data, where performed in Figures S18–S23 with their corresponding fit information.

STIL CCD peptide [2] = target: T1, STIL CCD peptide (Homo sapiens, UniProt Q15468, L736E); assay: Fluorescence-based binding (micro-scale thermophoresis instrument), self-association; details: 5 µM labeled + unlabelled same peptide 9 nM–300 µM; 25 mM Na2PO4 pH 6.8, 5% DMSO
T1 construct: STIL CCD718–749 WT; made in house; host or cells: chemical synthesis (Fmoc-SPPS on rink amide, C-terminal amide)
T1 sequence (Q15468 718-749 L736E): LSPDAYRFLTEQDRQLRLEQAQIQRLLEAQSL

[3] = CD spectroscopy, helicity; assay type: physicochemical; details: 5 °C
Text: (§1) Next, we used circular dichroism (CD) spectroscopy to probe the secondary structures of these WT CCD peptide assemblies. […] The spectra all had minima at 208 and 222 nm indicative of largely α-helical structures. From the high-concentration spectra we estimated ≈47% helix. To compare how the stabilities of these helical assemblies changed with concentration, we followed the changes in MRE222 with temperature over the same concentration range (Figure 2D, Table S1). Sigmoidal curves indicative of cooperative unfolding were apparent at all concentrations, indicating a cooperatively folded, oligomeric species. […] The temperature-dependent CD measurements were performed to determine the oligomerization-dependent thermal stability of the CCD. […] CD spectra of the peptides were recorded using a J-810 spectropolarimeter (Jasco) in a 0.1 cm and 1 cm quartz cuvette for far-UV CD spectroscopy, in a spectral range of 190 nm to 260 nm. The buffer used in the CD measurements was 25 mM sodium phosphate buffer pH = 6.8 with ionic strength of 154 mM (adjected by NaCl). The thermal melting of all STIL CCD peptides were measured as described. The graphs were fitted to Boltzmann equation in order to generate the Tm. Normalization to mean residue ellipticity was performed. The 100% helicity was calculated (with normalization to the length of the peptide and the condition of the measurement) as MRE × 10^−3 of −38 (Deg × cm^2 × dmol^−1 × res^−1).

[4] = assay type: physicochemical; details: for Tm: CD 222 nm, Boltzmann fit
Text: as §1

[5] = ref [14]; cited from earlier work
Text: Presumably, this is due to the disruption of the hydrophobic CC interactions upon mutation from the hydrophobic Leu to the charged Glu. […] Other ...

mass, single species model, SE (STIL CCD peptide [1]): 3038 ± 292 Da | AUC oligomeric state, SE (STIL CCD peptide [1]; single species fit, 20 °C, pH 6.8): 0.79 ± 0.08 (500 µM) × monomer mass | binding or oligomerization (in words) (STIL CCD peptide [2]): no binding or oligomerization | concentration dependence of CD spectrum / helical folding (in words) ([3]; different peptide concentrations (WT 5–100 µM), pH 6.8): no concentration dependence | MRE222 nm ([3]; CD at 50 µM, 25 mM sodium phosphate pH 6.8, 154 mM NaCl): −23.3 kdeg cm^2 dmol^−1 res^−1 | % Helicity ([3]; from MRE222 (100% = −38), CD at 50 µM, 25 mM sodium phosphate pH 6.8, 154 mM NaCl): 62% | Tm ([4]; 5 µM, sodium phosphate pH 6.8): 18±1 °C | Tm ([4]; 25 µM, sodium phosphate pH 6.8): 17±2 °C | Tm ([4]; 50 µM, 25 mM sodium phosphate pH 6.8, 154 mM NaCl): 10 ± 2 °C | Tm ([4]; 100 µM, sodium phosphate pH 6.8): 12±1 °C
Substance: L SPDAYRF LTEQDRQ LRLEQAQ IQRLLEA QSL-NH2 [STIL CCD718–749 L736E, STIL CCD peptide with destabilising L736E mutation; PDB 8oyk]
concentration dependence of Tm / thermal stability (in words) ([4]; pH 6.8): No detectable change in the Tm at different L736E concentrations | thermal stability of mutant peptide (in words) [5]: leads to a decrease in its thermal stability
